Measurements published in US7605265B2, “Heterodimers and methods of using them” (priority 2007, dated 2009).

How the values were obtained:
transient focal ischemia = experiment: MCAO (middle carotid artery occlusion model), transient focal ischemia; format: in vivo, mice
Protocol: The MCAO (middle carotid artery occlusion model) was performed to investigate the protective effects of compounds A, B and C on the brain when the brain was exposed to transient focal ischemia (lack of oxygen), emulating brain conditions during a stroke. […] The ability of the novel compounds to protect against the appearance of these neurological deficits was examined using a four-point scale neurological scoring system (Mann Whitney U test). For each of the following observable signs, the distribution of test subjects was noted (with and without treatment with the invention after ischemia): (0) no observable neurological deficits (normal); (1) failure to extend the left forepaw fully (mild); (2) circling to the contralateral side (moderate); and (3) loss of walking and righting reflex (severe). • (ii) The brains of the test subjects slices were sectioned into five pieces and the infarct area and volume of each slice was measured. The % of infarct area in test subjects treated with the invention after ischemia was compared to that of the control group for each brain slice. • (iii) Hemispheric brain swelling and infarct volume (the area of dead tissue caused by inadequate blood supply) was measured for test subjects treated with the invention after ischemia, and compared to that of the control group.
The compounds were administered 5 minutes after ischemia, 5 minutes after reperfusion, or 6 hours after ischemia. FIGS. 5a to 5f show results for the heterodimers compound B, C or A respectively, when administered 5 minutes after ischemia or reperfusion. FIGS. 5g and 5h show the results when the novel heterodimers were administered 6 hours after ischemia.
Compound B was administered at 5 minutes after ischemia. Distribution of neurological scores based on a four-point scale neurological scoring system (Mann Whitney U test): (0) no observable neurological deficits (normal); (1) failure to extend the left forepaw fully (mild); (2) circling to the contralateral side (moderate); and (3) loss of walking and righting reflex (severe).
The brain was sectioned into five pieces, each 2-mm thick. The infarct area of each posterior surface was analyzed by an image analysis program. The percentage of infarct area and volume were calculated and presented as the percentage of the infarct area of the contralateral hemisphere to eliminate the contribution of edema to the ischemic lesion.
The infarct area of each posterior surface was analyzed by an image analysis program. Hemispheric brain swelling was calculated as follows (ipsilateral volume−contralateral volume)/contralateral volume×100%.

[1] = tested on: scopolamine-induced memory impaired rats; experiment: Morris water maze, scopolamine-induced memory impairment; format: in vivo, rat
Protocol: The Morris water maze consists of a water pool with a hidden, submerged escape platform. The rats must learn, over a period of consecutive days, the location of the platform using either contextual or local cues. The time taken to locate the hidden platform (escape latency) is a measure of the animal's cognitive abilities.
(§1) Scopolamine (0.1 mg/kg) was first i.p. administered to young adult rats to impair their memories. Scopolamine-induced memory impaired rats were then orally administered one of three different doses of compound B (0.025, 0.050, or 0.100 mg/kg) and subjected to the Morris water maze over a period of 4 days. On each day, the time taken for the rats to detect the hidden platform in the water maze was measured, in seconds.
as §1, with “C (0.1, 0.2,” for “B (0.025, 0.050,”, “0.4” for “0.100”
as §1, with “A (0.1, 0.2,” for “B (0.025, 0.050,”, “0.4” for “0.100”
A spatial bias (% of total distance swum in the training quadrant during spatial probe trial) for the region of the apparatus where the platform was positioned during training was also measured for compounds B and C.
The spatial bias for the region of the testing apparatus where the hidden platform was positioned during training was measured. […] Tacrine (THA) was included for comparison purposes.

[2] = 0.005 μg/kg, 5 minutes after reperfusion
[3] = 0.005 μg/kg, 6 hours after ischemia
[4] = 0.05 μg/kg, 5 minutes after reperfusion
[5] = 0.05 μg/kg, 6 hours after ischemia

Structure (SMILES): O=c1ccc2c([nH]1)CCCC2NCCCCCCCCNc1c2c(nc3cc(Cl)ccc13)CCCC2 (centres unmarked) [Compound C]
- % Infarct area in brain slice # 1 (transient focal ischemia; [2]): 18.8 ± 3.3%
- % Infarct area in brain slice # 2 (transient focal ischemia; [2]): 47.8 ± 3.0%
- % Infarct area in brain slice # 3 (transient focal ischemia; [2]): 45.4 ± 1.8%
- % Infarct area in brain slice # 4 (transient focal ischemia; [2]): 18.5 ± 3.8 %
- % Infarct area in brain slice # 5 (transient focal ischemia; [2]): 0.6 ± 0.5%
- Hemispheric swelling (%) (transient focal ischemia; [2]): 7.1 ± 1.0 %
- Infarct volume (%) (transient focal ischemia; [2]): 30.1 ± 1.5 %
- Observed Neurological Deficits Mean ± SEM (transient focal ischemia; [2]): 1.0 ± 0.0
- Observed Neurological Deficits, score 0 (number of animals) (transient focal ischemia; [2]): 0
- Observed Neurological Deficits, score 1 (number of animals) (transient focal ischemia; [2]): 9
- Observed Neurological Deficits, score 2 (number of animals) (transient focal ischemia; [2]): 0
- Observed Neurological Deficits, score 3 (number of animals) (transient focal ischemia; [2]): 0
- n (dead/total): dead/total (transient focal ischemia; [2]): 9 (1/10)
- % Infarct area in brain slice # 1 (transient focal ischemia; [3]): 15.9 ± 4.0%
- % Infarct area in brain slice # 2 (transient focal ischemia; [3]): 40.2 ± 7.9%
- % Infarct area in brain slice # 3 (transient focal ischemia; [3]): 35.5 ± 5.3 %
- % Infarct area in brain slice # 4 (transient focal ischemia; [3]): 12.5 ± 4.9 %
- % Infarct area in brain slice # 5 (transient focal ischemia; [3]): −0.8 ± 0.8%
- Hemispheric swelling (%) (transient focal ischemia; [3]): 6.2 ± 1.2%
- Infarct volume (%) (transient focal ischemia; [3]): 23.9 ± 4.3 %
- Observed Neurological Deficits Mean ± SEM (transient focal ischemia; [3]): 1.3 ± 0.2
- Observed Neurological Deficits, score 0 (number of animals) (transient focal ischemia; [3]): 0
- Observed Neurological Deficits, score 1 (number of animals) (transient focal ischemia; [3]): 6
- Observed Neurological Deficits, score 2 (number of animals) (transient focal ischemia; [3]): 2
- Observed Neurological Deficits, score 3 (number of animals) (transient focal ischemia; [3]): 0
- n (dead/total): dead/total (transient focal ischemia; [3]): 8 (1/9)
- % Infarct area in brain slice # 1 (transient focal ischemia; [4]): 12.8 ± 3.3%
- % Infarct area in brain slice # 2 (transient focal ischemia; [4]): 54.0 ± 4.1%
- % Infarct area in brain slice # 3 (transient focal ischemia; [4]): 51.4 ± 3.1%
- % Infarct area in brain slice # 4 (transient focal ischemia; [4]): 26.2 ± 6.7%
- % Infarct area in brain slice # 5 (transient focal ischemia; [4]): −1.0 ± 0.8%
- Hemispheric swelling (%) (transient focal ischemia; [4]): 7.4 ± 1.0 %
- Infarct volume (%) (transient focal ischemia; [4]): 34.5 ± 3.7%
- Observed Neurological Deficits Mean ± SEM (transient focal ischemia; [4]): 1.3 ± 0.2
- Observed Neurological Deficits, score 0 (number of animals) (transient focal ischemia; [4]): 0
- Observed Neurological Deficits, score 1 (number of animals) (transient focal ischemia; [4]): 4
- Observed Neurological Deficits, score 2 (number of animals) (transient focal ischemia; [4]): 2
- Observed Neurological Deficits, score 3 (number of animals) (transient focal ischemia; [4]): 0
- n (dead/total): dead/total (transient focal ischemia; [4]): 6 (1/7)
- % Infarct area in brain slice # 1 (transient focal ischemia; [5]): 11.7 ± 3.3%
- % Infarct area in brain slice # 2 (transient focal ischemia; [5]): 38.0 ± 6.8 %
- % Infarct area in brain slice # 3 (transient focal ischemia; [5]): 32.5 ± 6.6 %
- % Infarct area in brain slice # 4 (transient focal ischemia; [5]): 16.8 ± 6.0%
- % Infarct area in brain slice # 5 (transient focal ischemia; [5]): 0.5 ± 0.4%
- Hemispheric swelling (%) (transient focal ischemia; [5]): 5.0 ± 1.2%
- Infarct volume (%) (transient focal ischemia; [5]): 23.5 ± 4.4 %
- Observed Neurological Deficits Mean ± SEM (transient focal ischemia; [5]): 1.3 ± 0.2
- Observed Neurological Deficits, score 0 (number of animals) (transient focal ischemia; [5]): 0
- Observed Neurological Deficits, score 1 (number of animals) (transient focal ischemia; [5]): 6
- Observed Neurological Deficits, score 2 (number of animals) (transient focal ischemia; [5]): 2
- Observed Neurological Deficits, score 3 (number of animals) (transient focal ischemia; [5]): 0
- n (dead/total): dead/total (transient focal ischemia; [5]): 8 (1/9)
- infarct area in brain slices (in words) (transient focal ischemia; 5 minutes after reperfusion, FIG. 5c): reduction in infarct area of brain slices #4
- infarct size and hemispheric swelling (in words) (transient focal ischemia; 5 minutes after reperfusion, FIG. 5d): reduced infarct size and hemispheric swelling
- infarct area (in words) (transient focal ischemia; 6 hours after ischemia, FIG. 5g): improvement in the infarct area
- infarct volume (in words) (transient focal ischemia; 6 hours after ischemia, FIG. 5h): decreases infarct volume
- neurological deficits induced by ischemia (in words) (transient focal ischemia; administered 5 minutes after reperfusion): reduced neurological deficits induced by ischemia
- neurological deficits (in words) (transient focal ischemia; administration 6 hours after ischemia): reduced neurological deficits
- escape latency, compared with tacrine ([1]; 0.2 mg/kg and 0.4 mg/kg vs 1.5 mg/kg tacrine (THA)): more effective that 1.5 mg/kg tacrine
- escape latency ([1]; 0.4 mg/kg orally, scopolamine 0.1 mg/kg i.p., 4 days, FIG. 4b): significantly reversed the increased escape latency induced by scopolamine
- spatial bias ([1]; 0.2 and 0.4 mg/kg, scopolamine 0.1 mg/kg, FIG. 4e, 4f): spatial bias close to control levels
- spatial bias (% of total distance swum in the training quadrant during spatial probe trial) ([1]; memory-impaired rats, FIG. 4d-4f): significantly increased spatial bias
